Results on nine compounds are retold here after patent US20190225650A1, “PEPTIDOMIMETIC MACROCYCLES AND USE THEREOF IN REGULATING HIF1ALPHA” (AILERON THERAPEUTICS, INC., priority 2013, published 2019).

Bridge positions count the residues as written; N and C are the ends. Square brackets hold non-standard residues; d marks the D form. Peptide text beside a SMILES is read from it. R8 = C=CCCCCCC[C@@](C)(N)C(=O)O; S5 = C=CCCC[C@](C)(N)C(=O)O; Nle = CCCC[C@H](N)C(=O)O

Assay [1] relates to HRE-bla ME-180 cells. In words: Reporter gene assay (HRE-bla ME-180 HIF reporter, GeneBLAzer). The assay is classed as cell-based, human. Conditions: for EC50: 24 hour normoxia. An outline of the steps: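 A FRET β-lactamase readout of HIF transcription was used. After compound treatment in 0.3% DMSO/media under normoxic conditions, 20 μl of 6× LiveBLAzer-FRET B/G (CCF4-AM) substrate was added. Plates sat 3 hr at room temperature in the dark and were read at 409 Ex/460Em and 409Ex/530Em on a Synergy 2. Inhibition was compared against DMSO vehicle controls, with chetomin as positive control.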
Background: Reporter assays use an easily measured gene product as a stand-in for the process of interest.

Assay [2] concerns HRE-bla ME-180 cells. The assay can be described thus: Cell proliferation assay (viability, MTT, 1% FBS). It is filed as cell-based, human. In outline:
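Viable cell number was measured with the CellTiter 96 (MTT) kit after compounds were applied for a 16 h normoxic (21% O2) pretreatment, followed by further normoxic or hypoxic (1% O2) culture. Cells: 2×10^4 ME-180 per well, Opti-MEM + 1% FBS, 0.5% DMSO vehicle.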

Assay [3] deals with T1, flag-tagged HIF1α (AA 786-826) / His6-tagged p300 (AA 323-423) complex (Homo sapiens, UniProt Q09472).
T1 construct: His6-tagged p300 (AA 323-423); made in house; host or cells: E. coli (pETDuet vector)
In words: HIF1α p300 displacement assay (TR FRET, +CHAPS). It is filed as binding. The following applies: read-out: IC50 (nM) (HIF1α_p300 Displacement + CHAPS). An outline of the steps: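 In this TR-FRET displacement format, peptides compete HIF1α C-terminal transactivation domain off p300-CH. They were preincubated 1 h at room temperature with 300 nM complex in HEPES pH 7.4/NaCl buffer with 7.5 mM CHAPS and 1 mM DTT. Anti-His-D2 (4 nM) and anti-Flag-K (0.5 μM) followed for 2 h, and a one-site fit of the fluorescence ratio gave IC50.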

Turning to `CCCC[C@H](NC(=O)[C@H](CCC(=O)O)NC(=O)[C@]1(C)CCCC=CCCCCCC[C@@](C)(NC(=O)[C@H](CCC(=O)O)NC(=O)[C@H](CC(=O)O)NC(=O)[C@@H](NC(=O)[C@H](CC(N)=O)NC(=O)[C@@H](NC(=O)[C@]2(C)CCCC=CCCCCCC[C@@](C)(NC(=O)[C@H](CCC(=O)O)NC(=O)CNC(=O)[C@H](CCC(N)=O)NC(=O)[C@H](CC(C)C)NC(=O)[C@H](CC(C)C)NC(C)=O)C(=O)N[C@@H](CC(C)C)C(=O)N[C@@H](CC(C)C)C(=O)N[C@@H](CCCNC(=N)N)C(=O)N[C@@H](C)C(=O)N[C@@H](CC(C)C)C(=O)N[C@@H](C)C(=O)N2)C(C)C)[C@@H](C)CC)C(=O)N[C@@H](C(C)C)C(=O)N[C@@H](CC(C)C)C(=O)N[C@@H](CCCC)C(=O)N[C@@H](CO)C(=O)N[C@@H](CC(C)C)C(=O)N[C@@H](C(C)C)C(=O)N1)C(N)=O` [SP-354] (Ac-LLQGE[R8]LLRALA[S5]VNIDE[R8]VL[Nle]SLV[S5]E[Nle]-NH2; staple 6-13, 19-26), in assay [1], the “18 h Avg % max inhibition at top conc (HIF Rptr-24 hrs normoxia) (μM)” value (“18 h Avg % max inhibition at top conc” below) was “+++ (≤25 but <50: +++)” and the EC50 (as a rule, the concentration giving half of the maximal effect) was greater than 30 µM. For the same compound, in assay [2], the “Viability 1% FBS AVG (MTT V3-24 hr Normoxia) (μM)” value (shortened to “Viability 1% FBS AVG”) is on record as “++++ (≥30: ++++)”. The IC50 (as a rule, the midpoint of a concentration-inhibition curve) in assay [3] was in the range of 200 to 400 nM.

Take `CC[C@H](C)[C@H](NC(=O)[C@H](CC(N)=O)NC(=O)[C@@H](NC(=O)[C@H](CCC(N)=O)NC(=O)[C@H](CC(=O)O)NC(=O)[C@H](CC(C)C)NC(=O)[C@H](C)NC(=O)[C@H](CCCNC(=N)N)NC(=O)[C@H](CC(C)C)NC(=O)[C@H](CC(C)C)NC(=O)[C@H](CCC(=O)O)NC(=O)[C@H](CCC(=O)O)NC(=O)CNC(=O)[C@H](CCC(N)=O)NC(=O)[C@H](CC(C)C)NC(=O)[C@H](CC(C)C)NC(C)=O)C(C)C)C(=O)N[C@@H](CC(=O)O)C(=O)N[C@@H](CCC(=O)O)C(=O)N[C@@]1(C)CCCC=CCCC[C@@](C)(C(=O)N[C@@H](CC(C)C)C(=O)N[C@H](C(=O)N[C@H](C(=O)N[C@@H](CCC(=O)O)C(=O)N[C@@H](CCSC)C(N)=O)[C@@H](C)CC)C(C)C)NC(=O)[C@H](CCSC)NC(=O)[C@H](CC(C)C)NC(=O)[C@H](C(C)C)NC1=O` [SP-318] (Ac-LLQGEELLRALDQVNIDE[S5]VLM[S5]LVIEM-NH2; staple 19-23): in assay [1], the “18 h Avg % max inhibition at top conc” value is on record as “+ (<10: +)” and the EC50 was greater than 30 µM. Further, in assay [2], the “Viability 1% FBS AVG” value was “++++ (≥30: ++++)”. In addition, the IC50 in assay [3] lay in the range of 400 to 700 nM.

Regarding `CC[C@H](C)[C@H](NC(=O)[C@H](Cc1ccccc1)NC(C)=O)C(=O)N[C@@H](CC(=O)O)C(=O)N[C@@H](CCC(=O)O)C(=O)N[C@@]1(C)CCCC=CCCC[C@@](C)(C(=O)N[C@@H](CC(C)C)C(=O)N[C@H](C(=O)N[C@H](C(=O)N[C@@H](CCC(=O)O)C(=O)N[C@@H](CCSC)C(=O)N[C@@H](C)C(=O)N[C@@H](CC(C)C)C(N)=O)[C@@H](C)CC)C(C)C)NC(=O)[C@H](CCSC)NC(=O)[C@H](CC(C)C)NC(=O)[C@H](C(C)C)NC1=O` [SP-110] (Ac-FIDE[S5]VLM[S5]LVIEMAL-NH2; staple 5-9), in assay [1], the “18 h Avg % max inhibition at top conc” value is recorded as “+++ (≤25 but <50: +++)” and the EC50 is greater than 30 µM. The “Viability 1% FBS AVG” value in assay [2] is reported as “++++ (≥30: ++++)”. The IC50 in assay [3] was in the range of 400 to 700 nM.

Consider `CCCC[C@H](NC(=O)[C@H](CCC(=O)O)NC(=O)[C@]1(C)CCCC=CCCCCCC[C@@](C)(NC(=O)[C@H](CCC(=O)O)NC(=O)[C@H](C)NC(=O)[C@H](C)NC(=O)[C@H](C)NC(=O)[C@H](C)NC(=O)[C@H](CCC(N)=O)NC(=O)[C@]2(C)CCCC=CCCC[C@](C)(NC(=O)[C@H](CC(C)C)NC(=O)[C@H](CCC(=O)O)NC(=O)[C@H](CCC(=O)O)NC(=O)CNC(=O)[C@H](CCC(N)=O)NC(=O)[C@H](CC(C)C)NC(=O)[C@H](CC(C)C)NC(C)=O)C(=O)N[C@@H](CCCNC(=N)N)C(=O)N[C@@H](C)C(=O)N[C@@H](CC(C)C)C(=O)N2)C(=O)N[C@@H](C(C)C)C(=O)N[C@@H](CC(C)C)C(=O)N[C@@H](CCCC)C(=O)N[C@@H](CO)C(=O)N[C@@H](CC(C)C)C(=O)N[C@@H](C(C)C)C(=O)N1)C(N)=O` [SP-359] (Ac-LLQGEEL[S5]RAL[S5]QAAAAE[R8]VL[Nle]SLV[S5]E[Nle]-NH2; staple 8-12, 19-26), for which, in assay [1], the “18 h Avg % max inhibition at top conc” value is “+++ (≤25 but <50: +++)” and the EC50 was greater than 30 µM. In addition, the “Viability 1% FBS AVG” value in assay [2] was “++++ (≥30: ++++)”. Also, the IC50 in assay [3] fell in the range of 200 to 400 nM.

With `CC[C@H](C)[C@H](NC(=O)[C@H](CCCNC(=N)N)NC(=O)[C@H](CC(=O)O)NC(=O)[C@H](CC(C)C)NC(=O)[C@H](C)NC(=O)[C@H](CCSC)NC(=O)[C@H](CCC(=O)O)NC(=O)[C@@H](NC(=O)[C@@H](NC(=O)[C@H](CC(C)C)NC(=O)[C@]1(C)CCCC=CCCC[C@](C)(NC(=O)[C@H](CCC(=O)O)NC(=O)[C@H](CC(=O)O)NC(=O)[C@@H](NC(=O)[C@H](Cc2ccccc2)NC(C)=O)[C@@H](C)CC)C(=O)N[C@@H](C(C)C)C(=O)N[C@@H](CC(C)C)C(=O)N[C@@H](CCSC)C(=O)N1)C(C)C)[C@@H](C)CC)C(=O)N[C@@H](CCCCN)C(=O)N[C@@H](CCC(=O)O)C(N)=O` [SP-113] (Ac-FIDE[S5]VLM[S5]LVIEMALDRIKE-NH2; staple 5-9), in assay [1], the “18 h Avg % max inhibition at top conc” value is “++++ (≥50: ++++)” and the EC50 fell in the range of 5 to 15 µM. The “Viability 1% FBS AVG” value in assay [2] is reported as “++++ (≥30: ++++)”. Also, the IC50 in assay [3] lay in the range of 400 to 700 nM.

Take `CCCC[C@H](NC(=O)[C@@]1(C)CCCC=CCCCC2(CCCC=CCCC[C@](C)(NC(=O)[C@H](CCC(=O)O)NC(=O)[C@H](CC(=O)O)NC(=O)[C@@H](NC(=O)[C@H](Cc3ccccc3)NC(C)=O)[C@@H](C)CC)C(=O)N[C@@H](C(C)C)C(=O)N[C@@H](CC(C)C)C(=O)N[C@@H](CCC(=O)O)C(=O)N2)C(=O)N[C@@H](CC(C)C)C(=O)N[C@@H](C(C)C)C(=O)N[C@@H]([C@@H](C)CC)C(=O)N1)C(=O)N[C@@H](C)C(=O)N[C@@H](CC(C)C)C(N)=O` (stereo partly drawn) [SP-205]: in assay [1], the “18 h Avg % max inhibition at top conc” value is reported as “+ (<10: +)” and the EC50 was greater than 30 µM. For the same compound, the “Viability 1% FBS AVG” value in assay [2] is reported as “++++ (≥30: ++++)”. Also, in assay [3], the IC50 was 200 to 400 nM.

Regarding `CC[C@H](C)[C@H](NC(=O)[C@H](CCCNC(=N)N)NC(=O)[C@H](CC(=O)O)NC(=O)[C@H](CC(C)C)NC(=O)[C@H](C)NC(=O)[C@H](CCSC)NC(=O)[C@]1(C)CCCC=CCCC[C@](C)(NC(=O)[C@H](CCSC)NC(=O)[C@H](CC(C)C)NC(=O)[C@@H](NC(=O)[C@H](Cc2c[nH]cn2)NC(=O)[C@H](CCC(=O)O)NC(=O)[C@H](CC(N)=O)NC(=O)[C@@H](NC(=O)[C@H](Cc2ccccc2)NC(C)=O)[C@@H](C)CC)C(C)C)C(=O)N[C@@H](CC(C)C)C(=O)N[C@@H](C(C)C)C(=O)N[C@@H]([C@@H](C)CC)C(=O)N1)C(N)=O` [SP-286] (Ac-FINEHVLM[S5]LVI[S5]MALDRI-NH2; staple 9-13), in assay [1], the “18 h Avg % max inhibition at top conc” value is listed as “++ (≤10 but <25: ++)” and the EC50 is greater than 30 µM. Moreover, the “Viability 1% FBS AVG” value in assay [2] is reported as “++++ (≥30: ++++)”. For the same compound, the IC50 in assay [3] is greater than 700 nM.

Consider `CC[C@H](C)[C@H](NC(=O)[C@H](Cc1ccccc1)NC(C)=O)C(=O)N[C@@H](CC(=O)O)C(=O)N[C@@H](CCC(=O)O)C(=O)N[C@@H](CCC(=O)O)C(=O)N[C@H](C(=O)N[C@@H](CC(C)C)C(=O)N[C@@H](CCSC)C(=O)N[C@@]1(C)CCCC=CCCC[C@@](C)(C(=O)N[C@@H](CCSC)C(=O)N[C@@H](C)C(=O)N[C@@H](CC(C)C)C(=O)N[C@@H](CO)C(=O)N[C@@H](CCCNC(=N)N)C(N)=O)NC(=O)[C@H]([C@@H](C)CC)NC(=O)[C@H](C(C)C)NC(=O)[C@H](CC(C)C)NC1=O)C(C)C` [SP-287] (Ac-FIDEEVLM[S5]LVI[S5]MALSR-NH2; staple 9-13), for which, in assay [1], the “18 h Avg % max inhibition at top conc” value was “++++ (≥50: ++++)” and the EC50 was 5 to 15 µM. The “Viability 1% FBS AVG” value in assay [2] is given as “++++ (≥30: ++++)”. Moreover, the half-inhibitory concentration (IC50) in assay [3] is greater than 700 nM.

Turning to `CC[C@H](C)[C@H](NC(=O)[C@H](Cc1ccccc1)NC(C)=O)C(=O)N[C@@H](CC(=O)O)C(=O)N[C@@H](CCC(=O)O)C(=O)N[C@@H](CCC(=O)O)C(=O)N[C@H](C(=O)N[C@@H](CC(C)C)C(=O)N[C@@H](CCSC)C(=O)N[C@@]1(C)CCCC=CCCC[C@@](C)(C(=O)N[C@@H](CCSC)C(=O)N[C@@H](C)C(=O)N[C@@H](CC(C)C)C(N)=O)NC(=O)[C@H]([C@@H](C)CC)NC(=O)[C@H](C(C)C)NC(=O)[C@H](Cc2ccccc2)NC1=O)C(C)C` [SP-236] (Ac-FIDEEVLM[S5]FVI[S5]MAL-NH2; staple 9-13), in assay [1], the “18 h Avg % max inhibition at top conc” value is “+++ (≤25 but <50: +++)” and the EC50 is greater than 30 µM. Besides, the “Viability 1% FBS AVG” value in assay [2] was “++++ (≥30: ++++)”. Further, in assay [3], the 50% inhibitory concentration (IC50) was greater than 700 nM.
